Legend:
[1] = test system: porcine RWM; experiment: Ex-vivo porcine RWM device permeability measurement; type: in vitro ADME; settings: Dex ~400 μg/ml
[2] = humans; after intratympanic DSP 0.4-1.8 ml of 4 mg/ml; cited from earlier work

## C[C@@H]1C[C@H]2[C@@H]3CCC4=CC(=O)C=C[C@]4(C)[C@@]3(F)[C@@H](O)C[C@]2(C)[C@@]1(O)C(=O)CO [Dex, dexamethasone]
[1]
  time for passage through the porcine RWM: < 0.5 h
[2]
  dexamethasone concentration in perilymph: about 1.4 μg/

Reference: patent publication US20240310365A1, “DEVICE FOR EVALUATING INNER EAR DRUG DELIVERY” (North Carolina State University, priority 2023, published 2024)
